The values that follow come from PubChem BioAssay (NCI).

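Values below derive from 48-hour exposures of cells grown in 96-well plates, with endpoints linearly interpolated between the two concentrations bracketing the appropriate inhibition level. TGI: concentration producing complete growth inhibition.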 *1 amine or outer side, *2 acyl side, *3 side chain or, on linkers, in order; H or OH if unused. Where a SMILES comes first, the peptide text is derived from it. [ ]: non-standard residue; d: D form. The star is where a group is joined. ξ: configuration not given here. NMeY = CN[C@@H](Cc1ccc(O)cc1)C(=O)O; Ethylenediamine = C(CN[*:2])N[*:1]; ξNMeL = CNC(CC(C)C)C(=O)O; Cbz = O=C(OCc1ccccc1)*; Lac = C[C@H](O)C(=O)O; ξA = CC(N)C(=O)O

Test systems include 786-0 renal; MALME-3M melanoma; SK-MEL-28 melanoma; T-47D breast; SNB-75 CNS; BT-549 breast; HCC-2998 colon; RPMI-8226 leukemia; HT29 colon; SK-OV-3 ovarian; SNB-19 CNS; KM12 colon; SF-295 CNS; ACHN renal; NCI/ADR-RES ovarian; HOP-62 NSCLC; MDA-MB-435; NCI-H522 lung.
Common to all, as to assay: NCI-60 cell line screen, 48 h

On to `CC(C)=NNc1snnc1C(N)=O`, for which the TGI in the assay on 786-0 renal, in the assay on MALME-3M melanoma, in the assay with SK-MEL-28 melanoma, in the assay on T-47D breast, in the assay with SNB-75 CNS and in the assay on BT-549 breast was greater than 100 µM in each case. Further, the TGI in the assay on HCC-2998 colon, with RPMI-8226 leukemia, in the assay on HT29 colon, with SK-OV-3 ovarian, in the assay on SNB-19 CNS and in the assay with KM12 colon was greater than 100 µM each time. In addition, the TGI in the assay with SF-295 CNS, in the assay with ACHN renal, in the assay on NCI/ADR-RES ovarian, in the assay with HOP-62 NSCLC, in the assay with MDA-MB-435 and in the assay with NCI-H522 lung was greater than 100 µM in each case.

With `Cc1cc(S(=O)(=O)Nc2nnc3c4ccccc4cnn23)c(S)cc1Cl`, the TGI was greater than 100 µM in the assay on 786-0 renal; greater than 100 µM in the assay with MALME-3M melanoma; greater than 100 µM with SK-MEL-28 melanoma; greater than 100 µM in the assay with T-47D breast; greater than 100 µM in the assay with SNB-75 CNS; greater than 92.3 µM in the assay with BT-549 breast. Further, the TGI in the assay with HCC-2998 colon was greater than 100 µM; in the assay with RPMI-8226 leukemia it was greater than 100 µM; with HT29 colon it was greater than 100 µM; in the assay with SK-OV-3 ovarian it was greater than 92.7 µM; in the assay on SNB-19 CNS, greater than 88.9 µM; with KM12 colon, greater than 100 µM. Moreover, the TGI in the assay with SF-295 CNS, in the assay with ACHN renal, in the assay with NCI/ADR-RES ovarian, in the assay on HOP-62 NSCLC, in the assay on MDA-MB-435 and in the assay with NCI-H522 lung was greater than 100 µM in each case.

For `COc1ccc(C[C@@H](C(=O)NCCNC(=O)C(CC(C)C)N(C)C(=O)[C@@H]2CCCN2C(=O)[C@H](C)O)N(C)C(=O)[C@@H]2CCCN2C(=O)[C@H](CC(C)C)NC(=O)C(C)NC(=O)OCc2ccccc2)cc1` (stereo partly specified) (Cbz-[ξA]LP[NMeY](Me)-{Ethylenediamine-ξNMeL-Pro-Lac}), the TGI in the assay on 786-0 renal, with MALME-3M melanoma, in the assay with SK-MEL-28 melanoma, in the assay with T-47D breast, with SNB-75 CNS and with BT-549 breast was greater than 100 µM throughout. In addition, the TGI in the assay with HCC-2998 colon, in the assay on RPMI-8226 leukemia, in the assay with HT29 colon, with SK-OV-3 ovarian, in the assay with SNB-19 CNS and in the assay on KM12 colon was greater than 100 µM throughout. Moreover, the TGI in the assay with SF-295 CNS, in the assay with ACHN renal, with NCI/ADR-RES ovarian, in the assay on HOP-62 NSCLC, with MDA-MB-435 and in the assay with NCI-H522 lung was greater than 100 µM throughout.

For `O=C1NC(N2CCCC(CO)C2)=N/C1=C\c1ccccc1` (stereo unspecified), the TGI in the assay on 786-0 renal, in the assay on MALME-3M melanoma, in the assay with SK-MEL-28 melanoma, with T-47D breast, in the assay with SNB-75 CNS and with BT-549 breast was greater than 100 µM in each case. Besides, the TGI in the assay on HCC-2998 colon, in the assay on RPMI-8226 leukemia, in the assay with HT29 colon, in the assay with SK-OV-3 ovarian, in the assay on SNB-19 CNS and with KM12 colon was greater than 100 µM in each case. The TGI in the assay with SF-295 CNS, in the assay with ACHN renal, with NCI/ADR-RES ovarian, in the assay with HOP-62 NSCLC, with MDA-MB-435 and in the assay with NCI-H522 lung was greater than 100 µM throughout.

Take `CCCN(CCC)C(=S)N/N=C(/C)c1ccccc1O`: the TGI was 26.7 µM with 786-0 renal; 28.8 µM in the assay with MALME-3M melanoma; greater than 100 µM with SK-MEL-28 melanoma; greater than 28.9 µM in the assay on T-47D breast; 35.4 µM in the assay on SNB-75 CNS; 47.9 µM in the assay with BT-549 breast. For the same compound, the TGI in the assay on HCC-2998 colon was greater than 100 µM; in the assay on RPMI-8226 leukemia, greater than 57.7 µM; with HT29 colon, greater than 100 µM; with SK-OV-3 ovarian it was greater than 75.5 µM; in the assay with SNB-19 CNS, greater than 100 µM; with KM12 colon it was greater than 100 µM. The TGI in the assay on SF-295 CNS was greater than 100 µM; in the assay with ACHN renal, greater than 51.9 µM; in the assay on NCI/ADR-RES ovarian, 5.57 µM; in the assay with HOP-62 NSCLC, 52.8 µM; in the assay on MDA-MB-435, greater than 100 µM; with NCI-H522 lung it was 25.5 µM.

With `Cc1cccc(NC(=O)O/N=C(\Cl)C(C)C)c1`, the TGI in the assay with 786-0 renal was determined as 4.12 µM; in the assay with MALME-3M melanoma, 5.29 µM; in the assay on SK-MEL-28 melanoma, 26.7 µM; with T-47D breast, 15.6 µM; in the assay with SNB-75 CNS it was 33.1 µM; in the assay on BT-549 breast it was 12.2 µM. Besides, the TGI amounted to 33.8 µM with HCC-2998 colon; 10.5 µM in the assay on RPMI-8226 leukemia; 27.2 µM in the assay with HT29 colon; 31.7 µM with SK-OV-3 ovarian; 38.9 µM in the assay with SNB-19 CNS; 36 µM in the assay with KM12 colon. In addition, the TGI worked out at 32.1 µM in the assay on SF-295 CNS; 3.94 µM in the assay on ACHN renal; 38.4 µM in the assay on NCI/ADR-RES ovarian; 34.5 µM with HOP-62 NSCLC; 31.7 µM in the assay on MDA-MB-435; 2.99 µM in the assay on NCI-H522 lung.

Take `N#Cc1cc2c(cc1C#N)/C(=N\c1cccc(N)n1)N=C2Nc1cccc(N)n1`: the TGI in the assay on 786-0 renal is 30.6 µM; in the assay with MALME-3M melanoma it was 84.1 µM; in the assay with SK-MEL-28 melanoma, 48.7 µM; in the assay on T-47D breast it was greater than 100 µM; with SNB-75 CNS, 76.1 µM; in the assay on BT-549 breast, 84.3 µM. Besides, the TGI with HCC-2998 colon is 57.5 µM; in the assay on RPMI-8226 leukemia, greater than 100 µM; with HT29 colon, 85.7 µM; in the assay with SK-OV-3 ovarian, 42.4 µM; with SNB-19 CNS it was greater than 100 µM; in the assay with KM12 colon, greater than 100 µM. Further, the TGI was greater than 100 µM with SF-295 CNS; 57.3 µM in the assay on ACHN renal; greater than 100 µM in the assay with NCI/ADR-RES ovarian; 70.2 µM with HOP-62 NSCLC; 59.7 µM with MDA-MB-435; 22.6 µM in the assay on NCI-H522 lung.

`CC1=NN(c2nc(N)nc(CSc3cc(Cl)c(C)cc3S(N)(=O)=O)n2)C(C)(C)C1`: the TGI in the assay with 786-0 renal, with MALME-3M melanoma, in the assay on SK-MEL-28 melanoma, with T-47D breast, in the assay on SNB-75 CNS and in the assay on BT-549 breast was greater than 10 µM throughout. Moreover, the TGI with HCC-2998 colon, in the assay on RPMI-8226 leukemia, with HT29 colon, in the assay with SK-OV-3 ovarian, in the assay on SNB-19 CNS and in the assay with KM12 colon was greater than 10 µM throughout. The TGI in the assay on SF-295 CNS, with ACHN renal, in the assay on NCI/ADR-RES ovarian, in the assay with HOP-62 NSCLC, in the assay with MDA-MB-435 and with NCI-H522 lung was greater than 10 µM throughout.

Take `COC(=O)c1c(C)[nH]c2c1C(=O)C(=O)c1nc(C)c(C)nc1-2`: the TGI was 25.9 µM in the assay with 786-0 renal; 15.7 µM in the assay with MALME-3M melanoma; 25.2 µM in the assay on SK-MEL-28 melanoma; 9.55 µM in the assay on T-47D breast; 7.95 µM with SNB-75 CNS; 23 µM in the assay with BT-549 breast. Also, the TGI was 24 µM in the assay with HCC-2998 colon; 47.3 µM in the assay on RPMI-8226 leukemia; 59.6 µM in the assay with HT29 colon; 18.5 µM with SK-OV-3 ovarian; 27.4 µM with SNB-19 CNS; 37.1 µM in the assay with KM12 colon. Moreover, the TGI with SF-295 CNS is 18.3 µM; in the assay on ACHN renal it was 47.3 µM; in the assay on NCI/ADR-RES ovarian, 78.1 µM; in the assay with HOP-62 NSCLC, 22 µM; in the assay on MDA-MB-435, 28.5 µM; in the assay on NCI-H522 lung it was 21.4 µM.

With `COC(=O)CCC1=NCC(C)(C)O1`, the TGI in the assay with 786-0 renal, in the assay on MALME-3M melanoma, in the assay with SK-MEL-28 melanoma, in the assay on T-47D breast, with SNB-75 CNS and in the assay with BT-549 breast was greater than 10 µM in each case. In addition, the TGI with HCC-2998 colon, with RPMI-8226 leukemia, with HT29 colon, with SK-OV-3 ovarian, with SNB-19 CNS and in the assay on KM12 colon was greater than 10 µM each time. Further, the TGI with SF-295 CNS, in the assay on ACHN renal, in the assay with NCI/ADR-RES ovarian, with HOP-62 NSCLC, in the assay with MDA-MB-435 and in the assay with NCI-H522 lung was greater than 10 µM throughout.

In the case of `CNCCN[C@@H]1c2cc3c(cc2[C@@H](c2cc(OC)c(O)c(OC)c2)[C@H]2C(=O)OC[C@@H]21)OCO3`, the TGI amounted to 0.487 µM with 786-0 renal; 1.83 µM in the assay with MALME-3M melanoma; 3.31 µM with SK-MEL-28 melanoma; 2.6 µM in the assay on T-47D breast; 1.12 µM in the assay with SNB-75 CNS; 0.814 µM in the assay with BT-549 breast. The TGI was 3.79 µM in the assay on HCC-2998 colon; 0.634 µM in the assay with RPMI-8226 leukemia; 1.89 µM in the assay with HT29 colon; 1.52 µM with SK-OV-3 ovarian; 11.9 µM with SNB-19 CNS; 4.47 µM with KM12 colon. In addition, the TGI in the assay on SF-295 CNS was 1.07 µM; with ACHN renal it was 1.04 µM; in the assay on NCI/ADR-RES ovarian it was greater than 100 µM; in the assay with HOP-62 NSCLC, 0.678 µM; with MDA-MB-435, 6.32 µM; with NCI-H522 lung it was 1.93 µM.

For the compound `O=C(O)C1OC1C(=O)O` (stereo unspecified), the TGI with 786-0 renal, in the assay on MALME-3M melanoma, in the assay on SK-MEL-28 melanoma, in the assay on T-47D breast, with SNB-75 CNS and in the assay on BT-549 breast was greater than 100 µM throughout. The TGI in the assay on HCC-2998 colon, in the assay on RPMI-8226 leukemia, with HT29 colon, in the assay with SK-OV-3 ovarian, with SNB-19 CNS and in the assay on KM12 colon was greater than 100 µM throughout. The TGI with SF-295 CNS, in the assay on ACHN renal, in the assay on NCI/ADR-RES ovarian, in the assay with HOP-62 NSCLC, in the assay on MDA-MB-435 and with NCI-H522 lung was greater than 100 µM each time.
